Measured values taken from PubChem BioAssay (NCI).
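Cultured in 96-well plates, cells were exposed to test compound for 48 hours across five concentrations. GI50 marks 50% less growth. TGI: total growth inhibition.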

Key:
Assay in all cases: NCI-60 cell line screen, 48 h
SF-295 CNS = tested on: SF-295 CNS
PC-3 prostate = tested on: PC-3 prostate
NCI-H23 lung = tested on: NCI-H23 lung
SF-539 CNS = tested on: SF-539 CNS
MCF7 breast = tested on: MCF7 breast
OVCAR-4 ovarian = tested on: OVCAR-4 ovarian
SK-OV-3 ovarian = tested on: SK-OV-3 ovarian
UO-31 renal = tested on: UO-31 renal
TK-10 renal = tested on: TK-10 renal
HOP-92 NSCLC = tested on: HOP-92 NSCLC
SK-MEL-5 melanoma = tested on: SK-MEL-5 melanoma
SNB-19 CNS = tested on: SNB-19 CNS
786-0 renal = tested on: 786-0 renal
LOX IMVI melanoma = tested on: LOX IMVI melanoma
SW-620 colon = tested on: SW-620 colon
A549 NSCLC = tested on: A549 NSCLC
IGROV1 ovarian = tested on: IGROV1 ovarian
NCI-H522 lung = tested on: NCI-H522 lung
HOP-62 NSCLC = tested on: HOP-62 NSCLC
CCRF-CEM leukemia = tested on: CCRF-CEM leukemia
MDA-MB-231 breast = tested on: MDA-MB-231 breast
RXF 393 renal = tested on: RXF 393 renal
CAKI-1 renal = tested on: CAKI-1 renal
K-562 leukemia = tested on: K-562 leukemia
RPMI-8226 leukemia = tested on: RPMI-8226 leukemia
A498 renal = tested on: A498 renal
HS 578T breast = tested on: HS 578T breast
SN12C renal = tested on: SN12C renal
DU-145 prostate = tested on: DU-145 prostate
HCT-15 colon = tested on: HCT-15 colon
EKVX NSCLC = tested on: EKVX NSCLC
MOLT-4 leukemia = tested on: MOLT-4 leukemia
OVCAR-5 ovarian = tested on: OVCAR-5 ovarian
HCT-116 colon = tested on: HCT-116 colon
NCI-H226 lung = tested on: NCI-H226 lung
HCC-2998 colon = tested on: HCC-2998 colon
BT-549 breast = tested on: BT-549 breast
HT29 colon = tested on: HT29 colon
M14 melanoma = tested on: M14 melanoma
OVCAR-3 ovarian = tested on: OVCAR-3 ovarian
UACC-62 melanoma = tested on: UACC-62 melanoma
NCI/ADR-RES ovarian = tested on: NCI/ADR-RES ovarian
SNB-75 CNS = tested on: SNB-75 CNS
NCI-H460 lung = tested on: NCI-H460 lung
ACHN renal = tested on: ACHN renal
SR leukemia = tested on: SR leukemia
SK-MEL-2 melanoma = tested on: SK-MEL-2 melanoma
OVCAR-8 ovarian = tested on: OVCAR-8 ovarian
T-47D breast = tested on: T-47D breast
KM12 colon = tested on: KM12 colon
SK-MEL-28 melanoma = tested on: SK-MEL-28 melanoma
HL-60(TB) leukemia = tested on: HL-60(TB) leukemia
COLO 205 colon = tested on: COLO 205 colon
MDA-MB-435 = tested on: MDA-MB-435
U251 CNS = tested on: U251 CNS
UACC-257 melanoma = tested on: UACC-257 melanoma
MALME-3M melanoma = tested on: MALME-3M melanoma
SF-268 CNS = tested on: SF-268 CNS
MDA-N = tested on: MDA-N

O=C(Nc1ccc(Oc2ccc(F)cc2)cc1)[C@@H]1C[C@@H](Cc2ccc(F)cc2)CN1C(=O)Cn1ccnn1
GI50 (SF-295 CNS): 3.64 µM | TGI (SF-295 CNS): 14.2 µM | GI50 (PC-3 prostate): 4.42 µM | TGI (PC-3 prostate): > 37.8 µM | GI50 (NCI-H23 lung): 12.1 µM | TGI (NCI-H23 lung): 35.5 µM | GI50 (SF-539 CNS): 10.6 µM | TGI (SF-539 CNS): 26.6 µM | GI50 (MCF7 breast): 3.74 µM | TGI (MCF7 breast): 17.5 µM | GI50 (OVCAR-4 ovarian): 6.29 µM | TGI (OVCAR-4 ovarian): > 69.9 µM | GI50 (SK-OV-3 ovarian): 19.5 µM | TGI (SK-OV-3 ovarian): > 75.7 µM | GI50 (UO-31 renal): 3.5 µM | TGI (UO-31 renal): 25.2 µM | GI50 (TK-10 renal): 8.74 µM | TGI (TK-10 renal): 35.3 µM | GI50 (HOP-92 NSCLC): 7.54 µM | TGI (HOP-92 NSCLC): 31.3 µM | GI50 (SK-MEL-5 melanoma): 9.12 µM | TGI (SK-MEL-5 melanoma): 22.6 µM | GI50 (SNB-19 CNS): 9.45 µM | TGI (SNB-19 CNS): > 100 µM | GI50 (786-0 renal): 10.5 µM | TGI (786-0 renal): 34.2 µM | GI50 (LOX IMVI melanoma): 7.28 µM | TGI (LOX IMVI melanoma): 22.2 µM | GI50 (SW-620 colon): 12.6 µM | TGI (SW-620 colon): 40 µM | GI50 (A549 NSCLC): 5.21 µM | TGI (A549 NSCLC): > 50.4 µM | GI50 (IGROV1 ovarian): 8 µM | TGI (IGROV1 ovarian): 28.2 µM | GI50 (NCI-H522 lung): 5.01 µM | TGI (NCI-H522 lung): 19.3 µM | GI50 (HOP-62 NSCLC): 12.3 µM | TGI (HOP-62 NSCLC): 31.5 µM | GI50 (CCRF-CEM leukemia): 5.24 µM | TGI (CCRF-CEM leukemia): > 100 µM | GI50 (MDA-MB-231 breast): 8.91 µM | TGI (MDA-MB-231 breast): 26.6 µM | GI50 (RXF 393 renal): 2.85 µM | TGI (RXF 393 renal): 11.6 µM | GI50 (CAKI-1 renal): 11.5 µM | TGI (CAKI-1 renal): 51.7 µM | GI50 (K-562 leukemia): 5.61 µM | TGI (K-562 leukemia): > 65 µM | GI50 (RPMI-8226 leukemia): 3.74 µM | TGI (RPMI-8226 leukemia): 26.4 µM | GI50 (A498 renal): 8.49 µM | TGI (A498 renal): 27.9 µM | GI50 (HS 578T breast): 11.5 µM | TGI (HS 578T breast): 51.9 µM | GI50 (SN12C renal): 5.73 µM | TGI (SN12C renal): 21.8 µM | GI50 (DU-145 prostate): 13.6 µM | TGI (DU-145 prostate): > 85.7 µM | GI50 (HCT-15 colon): 5.04 µM | TGI (HCT-15 colon): 23.1 µM | GI50 (EKVX NSCLC): 7.79 µM | TGI (EKVX NSCLC): 40.4 µM | GI50 (MOLT-4 leukemia): 4.2 µM | TGI (MOLT-4 leukemia): 31.6 µM | GI50 (OVCAR-5 ovarian): 4.52 µM | TGI (OVCAR-5 ovarian): 17.7 µM | GI50 (HCT-116 colon): 4.79 µM | TGI (HCT-116 colon): 17.3 µM | GI50 (NCI-H226 lung): 7.79 µM | TGI (NCI-H226 lung): 29 µM | GI50 (HCC-2998 colon): 7.17 µM | TGI (HCC-2998 colon): 21.8 µM | GI50 (BT-549 breast): 11.5 µM | TGI (BT-549 breast): 30 µM | GI50 (HT29 colon): 4.2 µM | TGI (HT29 colon): 15 µM | GI50 (M14 melanoma): 8.54 µM | TGI (M14 melanoma): 25.7 µM | GI50 (OVCAR-3 ovarian): 8.12 µM | TGI (OVCAR-3 ovarian): 26.7 µM | GI50 (UACC-62 melanoma): 6.14 µM | TGI (UACC-62 melanoma): 20.9 µM | GI50 (NCI/ADR-RES ovarian): 12.1 µM | TGI (NCI/ADR-RES ovarian): 52.5 µM | GI50 (SNB-75 CNS): 4.03 µM | TGI (SNB-75 CNS): 31.8 µM | GI50 (NCI-H460 lung): 5.37 µM | TGI (NCI-H460 lung): 21.4 µM | GI50 (ACHN renal): 4.93 µM | TGI (ACHN renal): 25.2 µM | GI50 (SR leukemia): 3.14 µM | TGI (SR leukemia): 14.2 µM | GI50 (SK-MEL-2 melanoma): 8.05 µM | TGI (SK-MEL-2 melanoma): 23 µM | GI50 (OVCAR-8 ovarian): 7.16 µM | TGI (OVCAR-8 ovarian): 31.9 µM | GI50 (T-47D breast): 4.32 µM | TGI (T-47D breast): 36.5 µM | GI50 (KM12 colon): 9.43 µM | TGI (KM12 colon): 24.1 µM | GI50 (SK-MEL-28 melanoma): 6.72 µM | TGI (SK-MEL-28 melanoma): 20.6 µM | GI50 (HL-60(TB) leukemia): 3.7 µM | TGI (HL-60(TB) leukemia): 17.8 µM | GI50 (COLO 205 colon): 5.21 µM | TGI (COLO 205 colon): 16.8 µM | GI50 (MDA-MB-435): 7.16 µM | TGI (MDA-MB-435): 23.7 µM | GI50 (U251 CNS): 4.79 µM | TGI (U251 CNS): 22.2 µM | GI50 (UACC-257 melanoma): 8.04 µM | TGI (UACC-257 melanoma): 24.9 µM | GI50 (MALME-3M melanoma): 9.49 µM | TGI (MALME-3M melanoma): 26.1 µM | GI50 (SF-268 CNS): 8.55 µM | TGI (SF-268 CNS): 33.8 µM

O=C(O)c1nc2ccccc2nc1Nc1ccc(Cl)c(Cl)c1
TGI (SF-295 CNS): 69.8 µM | TGI (PC-3 prostate): > 100 µM | TGI (NCI-H23 lung): 50.1 µM | TGI (SF-539 CNS): 43.7 µM | TGI (SK-OV-3 ovarian): 88.1 µM | TGI (UO-31 renal): 33.6 µM | TGI (TK-10 renal): > 100 µM | TGI (HOP-92 NSCLC): 59 µM | TGI (SK-MEL-5 melanoma): 47 µM | TGI (SNB-19 CNS): > 100 µM | TGI (786-0 renal): 63.9 µM | TGI (LOX IMVI melanoma): > 100 µM | TGI (SW-620 colon): > 100 µM | TGI (A549 NSCLC): > 100 µM | TGI (IGROV1 ovarian): > 100 µM | TGI (NCI-H522 lung): 60.1 µM | TGI (HOP-62 NSCLC): 58 µM | TGI (CCRF-CEM leukemia): > 100 µM | TGI (MDA-MB-231 breast): 90 µM | TGI (RXF 393 renal): 69.3 µM | TGI (CAKI-1 renal): 77.9 µM | TGI (K-562 leukemia): > 100 µM | TGI (RPMI-8226 leukemia): > 100 µM | TGI (A498 renal): 41.6 µM | TGI (SN12C renal): > 100 µM | TGI (DU-145 prostate): > 100 µM | TGI (HCT-15 colon): 36.1 µM | TGI (EKVX NSCLC): > 100 µM | TGI (MOLT-4 leukemia): > 100 µM | TGI (OVCAR-5 ovarian): > 100 µM | TGI (HCT-116 colon): 76.7 µM | TGI (NCI-H226 lung): > 100 µM | TGI (HCC-2998 colon): 73.5 µM | TGI (BT-549 breast): 61.4 µM | TGI (M14 melanoma): 82 µM | TGI (OVCAR-3 ovarian): 37.2 µM | TGI (MDA-N): > 100 µM | TGI (NCI/ADR-RES ovarian): > 100 µM | TGI (SNB-75 CNS): > 100 µM | TGI (NCI-H460 lung): 82.5 µM | TGI (ACHN renal): > 100 µM | TGI (SR leukemia): > 100 µM | TGI (OVCAR-8 ovarian): > 100 µM | TGI (T-47D breast): 72.1 µM | TGI (KM12 colon): 54 µM | TGI (SK-MEL-28 melanoma): 75 µM | TGI (HL-60(TB) leukemia): > 100 µM | TGI (COLO 205 colon): 82.6 µM | TGI (MDA-MB-435): > 100 µM | TGI (U251 CNS): > 100 µM | TGI (UACC-257 melanoma): > 100 µM | TGI (MALME-3M melanoma): > 100 µM | TGI (SF-268 CNS): > 100 µM
